Here are results for eleven compounds from ChEMBL document CHEMBL1201862, “PubChem BioAssay data set” (2004).

Among the test systems are M14; NCI-H460; CCRF-CEM; OVCAR-8; KM12; SK-MEL-28; UACC-62; K562; SF-539; PC-3; SNB-19; NCI-H226; MDA-N; Malme-3M; UO-31; CAKI-1; SW-620; SK-OV-3; RPMI-8226; RXF 393.
Common to all, as to assay: NCI anticancer screen, dose series, 48 h

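Interpolation was linear, between the two tested concentrations surrounding the appropriate level; five concentrations were tested over 48 hours in 96-well plates. At the GI50, growth is halved.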 Active and inactive are the calls of the source. No stated cut-off is given here; in the data, active = GI50 up to about 1.1 µM and inactive = higher.

Consider `COC(=O)C1(C(=O)OC)Cc2ccc(OC)cc2C2=C1C(=O)c1ccccc1C2=O`, for which the GI50 in the experiment with M14 was 18.4 µM (inactive); with NCI-H460, 16.1 µM (inactive); with CCRF-CEM it was 2.15 µM (inactive); in the experiment on OVCAR-8 it was 2.4 µM (inactive); in the experiment with KM12, 6.85 µM (inactive); in the experiment with SK-MEL-28 it was 17.1 µM (inactive). Moreover, the GI50 is 1.85 µM (inactive) in the experiment with UACC-62; 1.84 µM (inactive) in the experiment on K562; 16.6 µM (inactive) with SF-539; 1.87 µM (inactive) in the experiment on PC-3; 16.9 µM (inactive) in the experiment with SNB-19; 17.7 µM (inactive) with NCI-H226. Besides, the GI50 with MDA-N is 1.83 µM (inactive); with Malme-3M it was 10.8 µM (inactive); with UO-31 it was 3.69 µM (inactive); with CAKI-1, 0.423 µM (active); in the experiment with SW-620 it was 6.47 µM (inactive).

In the case of `O/N=N/c1ccc(Sc2ccc(/N=N/O)cn2)nc1`, the GI50 in the experiment on M14, in the experiment with NCI-H460, in the experiment on CCRF-CEM, with OVCAR-8, in the experiment on KM12 and with SK-MEL-28 was > 100 µM (inactive) each time. Further, the GI50 in the experiment on UACC-62, in the experiment on K562, in the experiment with SF-539, in the experiment on PC-3, in the experiment with SNB-19 and in the experiment with NCI-H226 was > 100 µM (inactive) each time. Moreover, the GI50 with MDA-N is > 100 µM (inactive); in the experiment with UO-31, 46.8 µM (inactive); with CAKI-1 it was > 100 µM (inactive); in the experiment with SW-620, > 100 µM (inactive); in the experiment on SK-OV-3, > 100 µM (inactive).

On to `C/C(=N\O)c1ccc2ccc3ccccc3c2c1`, for which the GI50 in the experiment with RPMI-8226 was 34.6 µM (inactive); in the experiment with M14, 66.5 µM (inactive); with NCI-H460 it was 42.6 µM (inactive); in the experiment on CCRF-CEM, 51.3 µM (inactive); in the experiment on OVCAR-8, 21.6 µM (inactive); in the experiment with KM12 it was 21.5 µM (inactive). For the same compound, the GI50 is 44.2 µM (inactive) in the experiment on SK-MEL-28; 18.9 µM (inactive) in the experiment with UACC-62; 25.5 µM (inactive) with K562; 17.5 µM (inactive) with SF-539; 32.3 µM (inactive) in the experiment on PC-3; 62.8 µM (inactive) with SNB-19. Besides, the GI50 with NCI-H226 was 26.4 µM (inactive); in the experiment on Malme-3M it was 23.1 µM (inactive); in the experiment with UO-31, 35.1 µM (inactive); with CAKI-1, 51.9 µM (inactive); in the experiment with RXF 393 it was 34.3 µM (inactive); in the experiment with SW-620, 30.6 µM (inactive). Further, the GI50 in the experiment on SK-OV-3 is > 100 µM (inactive).

With `N[C@H]1C2C3CC4C5CC(C42)C1(c1ccccc1)C53` (stereo partly specified), the GI50 with RPMI-8226, in the experiment with M14, with NCI-H460, with CCRF-CEM, in the experiment on OVCAR-8 and with KM12 was > 100 µM (inactive) throughout. Further, the GI50 in the experiment on SK-MEL-28, with UACC-62, in the experiment with K562, in the experiment on SF-539, with SNB-19 and with NCI-H226 was > 100 µM (inactive) in each case. The GI50 is > 100 µM (inactive) with Malme-3M; > 100 µM (inactive) in the experiment with UO-31; > 100 µM (inactive) in the experiment with CAKI-1; 45.1 µM (inactive) in the experiment with RXF 393; > 100 µM (inactive) in the experiment on SW-620; > 100 µM (inactive) in the experiment with SK-OV-3.

As for `CCNC(=S)NNC(=O)c1csc(NC(=S)NC2CCCCC2)n1`, the GI50 in the experiment on RPMI-8226 was 11.7 µM (inactive); with M14, 11.6 µM (inactive); in the experiment with NCI-H460, 6.62 µM (inactive); with CCRF-CEM, 4.55 µM (inactive); in the experiment with OVCAR-8, 10 µM (inactive); in the experiment with KM12, 11.1 µM (inactive). Besides, the GI50 is 6.18 µM (inactive) with UACC-62; 6.17 µM (inactive) in the experiment on SF-539; 17.4 µM (inactive) with PC-3; 37.5 µM (inactive) with SNB-19; > 100 µM (inactive) in the experiment with NCI-H226; 2.9 µM (inactive) with MDA-N. The GI50 in the experiment on UO-31 is 8.45 µM (inactive); in the experiment with CAKI-1 it was 6.71 µM (inactive); in the experiment on SW-620, 5.27 µM (inactive); with SK-OV-3, 21.3 µM (inactive).

`CCCCI(O)OS(=O)(=O)c1ccc(C)cc1`: the GI50 with RPMI-8226 is 50.6 µM (inactive); with M14, > 100 µM (inactive); with CCRF-CEM it was 53.5 µM (inactive); in the experiment with OVCAR-8, > 100 µM (inactive); in the experiment with KM12, 56.8 µM (inactive); with SK-MEL-28, > 100 µM (inactive). The GI50 with UACC-62 was 89.1 µM (inactive); in the experiment with K562, 67.8 µM (inactive); in the experiment on SF-539 it was > 100 µM (inactive); in the experiment with PC-3, > 100 µM (inactive); with SNB-19 it was > 100 µM (inactive); in the experiment with NCI-H226, > 100 µM (inactive). The GI50 was 23.9 µM (inactive) in the experiment with UO-31; > 100 µM (inactive) in the experiment on CAKI-1; > 100 µM (inactive) in the experiment with RXF 393; > 100 µM (inactive) with SW-620; > 100 µM (inactive) with SK-OV-3.

As for `COC(=O)[C@@H]1c2[nH]c3ccccc3c2C[C@@H]2c3ccccc3NC(=O)[C@@H]21`, the GI50 in the experiment with RPMI-8226 is > 49.1 µM (inactive); in the experiment with M14, > 78.5 µM (inactive); in the experiment on NCI-H460, > 100 µM (inactive); with CCRF-CEM it was > 77.6 µM (inactive); in the experiment on OVCAR-8, 21.3 µM (inactive); in the experiment on KM12, > 100 µM (inactive). For the same compound, the GI50 was > 91 µM (inactive) in the experiment with SK-MEL-28; > 75.7 µM (inactive) in the experiment on UACC-62; > 100 µM (inactive) in the experiment on K562; 43.7 µM (inactive) with SF-539; > 80.2 µM (inactive) with SNB-19; 18.3 µM (inactive) with NCI-H226. Further, the GI50 in the experiment with Malme-3M is > 46.5 µM (inactive); in the experiment with UO-31 it was > 100 µM (inactive); in the experiment on CAKI-1, > 73.6 µM (inactive); in the experiment on RXF 393, 26.2 µM (inactive); in the experiment on SW-620, > 70.3 µM (inactive); in the experiment with SK-OV-3, 20.7 µM (inactive).

`COC1=CC(=O)C2[C@H]3Cc4ccccc4[C@H]3C2(C)C1=O` (stereo partly specified): the GI50 in the experiment on RPMI-8226 was > 100 µM (inactive); in the experiment with M14, > 100 µM (inactive); in the experiment with NCI-H460, > 100 µM (inactive); in the experiment on CCRF-CEM, 55.2 µM (inactive); in the experiment with OVCAR-8, > 100 µM (inactive); in the experiment on KM12, > 100 µM (inactive). The GI50 with SK-MEL-28 is > 100 µM (inactive); with UACC-62 it was > 100 µM (inactive); in the experiment with K562, 52.1 µM (inactive); in the experiment on SF-539, > 100 µM (inactive); in the experiment with SNB-19 it was > 100 µM (inactive); with NCI-H226 it was 81.8 µM (inactive). Also, the GI50 with Malme-3M was > 100 µM (inactive); in the experiment with UO-31, 34.7 µM (inactive); in the experiment on CAKI-1 it was > 100 µM (inactive); with RXF 393 it was > 100 µM (inactive); in the experiment with SW-620, > 100 µM (inactive); in the experiment on SK-OV-3, > 100 µM (inactive).

Turning to `CC1=[N+]([O-])c2ccccc2C(=O)C1=O`, the GI50 was 35.5 µM (inactive) in the experiment on RPMI-8226; > 100 µM (inactive) in the experiment with M14; 61 µM (inactive) in the experiment with NCI-H460; 25.9 µM (inactive) with CCRF-CEM; > 100 µM (inactive) with OVCAR-8; > 100 µM (inactive) in the experiment on KM12. Besides, the GI50 with SK-MEL-28 was > 100 µM (inactive); in the experiment on UACC-62, 55.6 µM (inactive); with K562, 29.1 µM (inactive); with SF-539, > 100 µM (inactive); in the experiment on SNB-19 it was 93.8 µM (inactive); with NCI-H226, 15.8 µM (inactive). For the same compound, the GI50 in the experiment on Malme-3M is > 100 µM (inactive); in the experiment on UO-31 it was > 100 µM (inactive); with CAKI-1, > 100 µM (inactive); in the experiment on RXF 393 it was 81.1 µM (inactive); with SW-620, 89.5 µM (inactive); with SK-OV-3 it was > 100 µM (inactive).

Regarding `O/N=N/c1ccc2ccccc2n1`, the GI50 in the experiment on RPMI-8226, with M14, in the experiment with NCI-H460, with CCRF-CEM, with OVCAR-8 and in the experiment with KM12 was > 100 µM (inactive) each time. In addition, the GI50 with SK-MEL-28, with UACC-62, with K562, in the experiment on SF-539, with PC-3 and with SNB-19 was > 100 µM (inactive) in each case. The GI50 with NCI-H226, with MDA-N, in the experiment with UO-31, with CAKI-1, in the experiment with SW-620 and in the experiment with SK-OV-3 was > 100 µM (inactive) throughout.

For `CCOC(=O)C1(C/C=C\CBr)CCCC1=O` (stereo unspecified), the GI50 with M14 was 21.7 µM (inactive); in the experiment with OVCAR-8, 30.1 µM (inactive); in the experiment on KM12, 32.1 µM (inactive); with SK-MEL-28, 47.3 µM (inactive); with UACC-62 it was 15.7 µM (inactive); in the experiment with SF-539 it was 24.6 µM (inactive). The GI50 in the experiment with PC-3 is 36.7 µM (inactive); in the experiment on SNB-19, 38.3 µM (inactive); with NCI-H226 it was 20.8 µM (inactive); with Malme-3M, 48.1 µM (inactive); in the experiment with UO-31 it was 21.9 µM (inactive); in the experiment with CAKI-1 it was 48.8 µM (inactive). For the same compound, the GI50 in the experiment with RXF 393 is 16.6 µM (inactive); in the experiment on SW-620, 22.4 µM (inactive); in the experiment with SK-OV-3, 83.9 µM (inactive).
